# Source: US20220305012A1, “L[…] TREATING SLEEP ISSUES” (EISAI R&D MANAGEMENT CO., LTD., priority 2019, published 2022)
# Experiments:
# [1] = system: Subjects Having Insomnia Disorder; assay: Example 2: treatment-emergent adverse events; assay type: in vivo, human
# Procedure: Between 14 and 18 days after completion of the treatment period, subjects returned to the clinic for the end of study visit. The T-BWSQ and eC-SSRS were administered and routine safety assessments were conducted.
# A subject who prematurely discontinued taking study drug was to return to the clinic as soon as practicable after discontinuing study drug. If the subject discontinued due to an adverse event, the adverse event must have been followed to resolution or for 2 weeks, whichever came first. Additionally, subjects who discontinued early underwent a urine drug test.
# [2] = system: Subjects Having Insomnia Disorder; assay: Example 2: Cognitive Performance Assessment Battery; assay type: in vivo, human; details: either dose, at either time point (FIGS. 11A-11D)
# Procedure: FIG. 11A-FIG. 11D show the change from baseline (least squares mean) in the four domains of the Cognitive Performance Assessment Battery at Days 2/3 and Days 30/31 in patients treated with placebo, 6.25 mg of zolpidem, 5 mg of lemborexant, or 10 mg of lemborexant.
# Subjects were provided with a sleep diary and trained on how to record entries. After subjects completed the sleep diary on 7 consecutive mornings, and provided that the subject was still eligible to participate in the study, they attended a second clinical meeting between 10 and 17 days before the randomization phase. […]
# Within 5 minutes of the subject's mean habitual bedtime, study drug was administered and an overnight polysomnogram recording was initiated. At completion of the recording the following morning (Day 2), postural stability and cognitive performance were assessed. […] The next morning (Day 3), postural stability and cognitive performance were assessed. […]
# On Day 29, subjects returned to the clinic. […] On the following morning (Day 30), postural stability and cognitive performance were assessed. […]
# On the evening of Day 30, subjects returned to the clinic. […] The following morning (Day 31), postural stability and cognitive performance were assessed and a blood sample was obtained. […] An electrocardiogram was performed, and vital signs and weight were assessed. […]
# [3] = system: Subjects Having Insomnia Disorder; assay: Example 2: postural stability, body sway upon awakening in morning; assay type: in vivo, human
# From the text: Subjects were provided with a sleep diary and trained on how to record entries. After subjects completed the sleep diary on 7 consecutive mornings, and provided that the subject was still eligible to participate in the study, they attended a second clinical meeting between 10 and 17 days before the randomization phase. The subject was then fitted with a polysomnogram and trained in how to complete the postural stability assessment and cognitive performance assessment battery. Subjects then underwent an 8-hour polysomnogram recording. Within 5 minutes of waking, the postural stability assessment and cognitive assessment battery were conducted on the subject.
# Within 5 minutes of the subject's mean habitual bedtime, study drug was administered and an overnight polysomnogram recording was initiated. At completion of the recording the following morning (Day 2), postural stability and cognitive performance were assessed. On the Day 2 evening, subjects returned to the clinic and a blood sample was collected before administering study drug, and then study drug was administered within 5 minutes of the subject's mean habitual bedtime. Again, a polysomnogram recording was initiated. The next morning (Day 3), postural stability and cognitive performance were assessed. A blood sample was also collected.
# On Day 29, subjects returned to the clinic. Study drug was administered within 5 minutes of the subject's mean habitual bedtime and a polysomnogram recording was conducted. On the following morning (Day 30), postural stability and cognitive performance were assessed. After 1.5 hours of waketime, subjects rated their morning sleepiness level.
# (§1) On the evening of Day 30, subjects returned to the clinic. A pre-dose blood sample was collected and study drug was again administered within 5 minutes of the subject's mean habitual bedtime. A polysomnogram recording was initiated. The following morning (Day 31), postural stability and cognitive performance were assessed and a blood sample was obtained. The ISI, FSS, EQ-5D-3L and PGI-Insomnia were administered. Blood and urine samples were collected for routine safety assessment. An electrocardiogram was performed, and vital signs and weight were assessed. The eC-SSRS was then administered to the subject. At 1.5 hours after waketime, subjects rated their morning sleepiness level.
# An exemplary additional secondary endpoint is the change from baseline on the postural stability test of mean units of body sway on Days 2 and 3 after administration of 5 mg or 10 mg of lemborexant compared to zolpidem.
# [4] = system: Subjects Having Insomnia Disorder; assay: Example 2: Insomnia Severity Index Total Score (Items 1-7); assay type: in vivo, human; details: for Insomnia Severity Total Score (Items 1-7), Change from Study Baseline, Mean (SD) / Insomnia Severity Total Score (Items 1-7), Change from Study Baseline, Median / Insomnia Severity Total Score (Items 1-7), Mean (SD) / Insomnia Severity Total Score (Items 1-7), Median: Day 31
# From the text: (§2) As used herein, the term “Insomnia Severity Index”, abbreviated as “ISI”, is an index calculated using a 7-item, self-report questionnaire assessing the nature, severity, and impact of insomnia (see Bastien, C. H., et al. “Validation of the Insomnia Severity Index as an outcome measure for insomnia research.” Sleep Med. 2001; 2(4): 297-307). The questionnaire evaluates: (1) severity of sleep onset; (2) sleep maintenance; (3) early morning awakening problems; (4) sleep dissatisfaction; (5) interference caused by sleep difficulties with daytime functioning; (6) noticeability of sleep problems by others; and (7) distress caused by the sleep difficulties. A 5-point scale is used to rate each item (0=no problem to 4=very severe problem) yielding a total score from 0 to 28. Total ISI score (items (1)-(7)) and daytime functioning (items (4)-(7)) are analyzed separately.
# (§3) On day 1 of the baseline period, subjects were admitted to the clinic and ISI, FSS, and EQ-5D-3L were administered. Blood and urine samples were collected for routine safety assessments, an ECG was performed, and vital signs and weight were assessed. The eC-SSRS was administered. Subjects who completed the baseline period and continued to meet the eligibility criteria were randomized and began the randomization phase.
# as §1
# [5] = system: Subjects Having Insomnia Disorder; assay: Example 2: Insomnia Severity Index Daytime Functioning (Items 4-7); assay type: in vivo, human; details: for Insomnia Severity Daytime Functioning (Items 4-7), Change from Study Baseline, Mean (SD) / Insomnia Severity Daytime Functioning (Items 4-7), Change from Study Baseline, Median / Insomnia Severity Daytime Functioning (Items 4-7), Mean (SD) / Insomnia Severity Daytime Functioning (Items 4-7), Median: Day 31
# From the text: as §2, §3, §1
# [6] = system: Subjects Having Insomnia Disorder; assay: Example 2: auditory awakening threshold
smiles,measurement,setting,value
"Cc1ncc(OC[C@@]2(c3cccc(F)c3)C[C@H]2C(=O)Nc2ccc(F)cn2)c(C)n1 [Lemborexant, (1R,2S)-2-(((2,4-dimethylpyrimidin-5-yl)oxy)methyl)-2-(3-fluorophenyl)-N-(5-fluoropyridin-2-yl)cyclopropanecarboxamide]",safety and tolerability (incidence of adverse events),[1]; Example 2 (Table 29),safe and well-tolerated
same,Congenital anomaly/birth defect,[1]; Lemborexant 5 mg (N = 266),0 n (%)
same,Deaths,[1]; Lemborexant 5 mg (N = 266),0 n (%)
same,Important medical events,[1]; Lemborexant 5 mg (N = 266),1 (0.3) n (%)
same,Life threatening,[1]; Lemborexant 5 mg (N = 266),0 n (%)
same,Other SAEs,[1]; Lemborexant 5 mg (N = 266),2 (0.8) n (%)
same,Persistent or significant disability or incapacity,[1]; Lemborexant 5 mg (N = 266),0 n (%)
same,Requires inpatient hospitalization or prolongation of existing hospitalization,[1]; Lemborexant 5 mg (N = 266),2 (0.8) n (%)
same,Serious TEAEs,[1]; Lemborexant 5 mg (N = 266),2 (0.8) n (%)
same,Severe TEAEs,[1]; Lemborexant 5 mg (N = 266),1 (0.4) n (%)
same,TEAEs,[1]; Lemborexant 5 mg (N = 266),74 (27.8) n (%)
same,TEAEs leading to study dose reduced,[1]; Lemborexant 5 mg (N = 266),0 n (%)
same,TEAEs leading to study drug dose adjustment,[1]; Lemborexant 5 mg (N = 266),3 (1.1) n (%)
same,TEAEs leading to study drug interrupted,[1]; Lemborexant 5 mg (N = 266),1 (0.4) n (%)
same,TEAEs leading to study drug withdrawal,[1]; Lemborexant 5 mg (N = 266),2 (0.8) n (%)
same,Treatment-related TEAEs,[1]; Lemborexant 5 mg (N = 266),30 (11.3) n (%)
same,Congenital anomaly/birth defect,[1]; Lemborexant 10 mg (N = 268),0 n (%)
same,Deaths,[1]; Lemborexant 10 mg (N = 268),0 n (%)
same,Important medical events,[1]; Lemborexant 10 mg (N = 268),0 n (%)
same,Life threatening,[1]; Lemborexant 10 mg (N = 268),0 n (%)
same,Other SAEs,[1]; Lemborexant 10 mg (N = 268),0 n (%)
same,Persistent or significant disability or incapacity,[1]; Lemborexant 10 mg (N = 268),0 n (%)
same,Requires inpatient hospitalization or prolongation of existing hospitalization,[1]; Lemborexant 10 mg (N = 268),0 n (%)
same,Serious TEAEs,[1]; Lemborexant 10 mg (N = 268),0 n (%)
same,Severe TEAEs,[1]; Lemborexant 10 mg (N = 268),2 (0.7) n (%)
same,TEAEs,[1]; Lemborexant 10 mg (N = 268),82 (30.6) n (%)
same,TEAEs leading to study dose reduced,[1]; Lemborexant 10 mg (N = 268),0 n (%)
same,TEAEs leading to study drug dose adjustment,[1]; Lemborexant 10 mg (N = 268),3 (1.1) n (%)
same,TEAEs leading to study drug interrupted,[1]; Lemborexant 10 mg (N = 268),0 n (%)
same,TEAEs leading to study drug withdrawal,[1]; Lemborexant 10 mg (N = 268),3 (1.1) n (%)
same,Treatment-related TEAEs,[1]; Lemborexant 10 mg (N = 268),39 (14.6) n (%)
same,cognitive tests compared with placebo,[2],neither dose of lemborexant differed from placebo
same,"Body Sway Upon Awakening in Morning, Change from Study Baseline, Mean (SD)","[3]; Days 2/3, Lemborexant 5 mg",−0.82 ⅓ degree angle of arc
same,"Body Sway Upon Awakening in Morning, Change from Study Baseline, Median","[3]; Days 2/3, Lemborexant 5 mg",−0.50 ⅓ degree angle of arc
same,"Body Sway Upon Awakening in Morning, Mean (SD)","[3]; Days 2/3, Lemborexant 5 mg",25.73 ⅓ degree angle of arc
same,"Body Sway Upon Awakening in Morning, Median","[3]; Days 2/3, Lemborexant 5 mg",21.00 ⅓ degree angle of arc
same,"Body Sway Upon Awakening in Morning, Change from Study Baseline, Mean (SD)","[3]; Days 2/3, Lemborexant 10 mg",0.56 ⅓ degree angle of arc
same,"Body Sway Upon Awakening in Morning, Change from Study Baseline, Median","[3]; Days 2/3, Lemborexant 10 mg",0.50 ⅓ degree angle of arc
same,"Body Sway Upon Awakening in Morning, Mean (SD)","[3]; Days 2/3, Lemborexant 10 mg",24.36 ⅓ degree angle of arc
same,"Body Sway Upon Awakening in Morning, Median","[3]; Days 2/3, Lemborexant 10 mg",20.00 ⅓ degree angle of arc
same,"Body Sway Upon Awakening in Morning, Change from Baseline, Mean (SD)","[3]; Days 30/31, Lemborexant 5 mg",−0.85 ⅓ degree angle of arc
same,"Body Sway Upon Awakening in Morning, Change from Baseline, Median","[3]; Days 30/31, Lemborexant 5 mg",−0.50 ⅓ degree angle of arc
same,"Body Sway Upon Awakening in Morning, Mean (SD)","[3]; Days 30/31, Lemborexant 5 mg",25.10 ⅓ degree angle of arc
same,"Body Sway Upon Awakening in Morning, Median","[3]; Days 30/31, Lemborexant 5 mg",20.50 ⅓ degree angle of arc
same,"Body Sway Upon Awakening in Morning, Change from Baseline, Mean (SD)","[3]; Days 30/31, Lemborexant 10 mg",0.48 ⅓ degree angle of arc
same,"Body Sway Upon Awakening in Morning, Change from Baseline, Median","[3]; Days 30/31, Lemborexant 10 mg",0.50 ⅓ degree angle of arc
same,"Body Sway Upon Awakening in Morning, Mean (SD)","[3]; Days 30/31, Lemborexant 10 mg",22.76 ⅓ degree angle of arc
same,"Body Sway Upon Awakening in Morning, Median","[3]; Days 30/31, Lemborexant 10 mg",18.00 ⅓ degree angle of arc
same,effects on postural stability compared to placebo,[3]; Table 24,no significant effects on postural stability compared to placebo
same,body sway,"[3]; all lemborexant treatment groups, relative to baseline, placebo and zolpidem treatment groups (Table 24)",reduced
same,"Insomnia Severity Total Score (Items 1-7), Change from Study Baseline, Mean (SD)",[4]; Lemborexant 5 mg,−7.75 (5.474)
same,"Insomnia Severity Total Score (Items 1-7), Change from Study Baseline, Median",[4]; Lemborexant 5 mg,−7.00
same,"Insomnia Severity Total Score (Items 1-7), Mean (SD)",[4]; Lemborexant 5 mg,11.24 (5.387)
same,"Insomnia Severity Total Score (Items 1-7), Median",[4]; Lemborexant 5 mg,11.00
same,"Insomnia Severity Total Score (Items 1-7), Change from Study Baseline, Mean (SD)",[4]; Lemborexant 10 mg,−7.92 (5.894)
same,"Insomnia Severity Total Score (Items 1-7), Change from Study Baseline, Median",[4]; Lemborexant 10 mg,−7.00
same,"Insomnia Severity Total Score (Items 1-7), Mean (SD)",[4]; Lemborexant 10 mg,11.11 (5.639)
same,"Insomnia Severity Total Score (Items 1-7), Median",[4]; Lemborexant 10 mg,11.00
same,mean insomnia severity index total score,"[4]; lemborexant treatment groups, relative to baseline and the placebo treatment group (Table 22)",reduced
same,"Insomnia Severity Daytime Functioning (Items 4-7), Change from Study Baseline, Mean (SD)",[5]; Lemborexant 5 mg,−4.83 (3.593)
same,"Insomnia Severity Daytime Functioning (Items 4-7), Change from Study Baseline, Median",[5]; Lemborexant 5 mg,−4.00
same,"Insomnia Severity Daytime Functioning (Items 4-7), Mean (SD)",[5]; Lemborexant 5 mg,6.12 (3.488)
same,"Insomnia Severity Daytime Functioning (Items 4-7), Median",[5]; Lemborexant 5 mg,6.00
same,"Insomnia Severity Daytime Functioning (Items 4-7), Change from Study Baseline, Mean (SD)",[5]; Lemborexant 10 mg,−4.77 (3.735)
same,"Insomnia Severity Daytime Functioning (Items 4-7), Change from Study Baseline, Median",[5]; Lemborexant 10 mg,−4.00
same,"Insomnia Severity Daytime Functioning (Items 4-7), Mean (SD)",[5]; Lemborexant 10 mg,6.10 (3.617)
same,"Insomnia Severity Daytime Functioning (Items 4-7), Median",[5]; Lemborexant 10 mg,6.00
same,mean insomnia severity index daytime score,"[5]; lemborexant treatment groups, relative to baseline and the placebo treatment group (Table 23)",reduced
same,"Auditory Awakening Threshold, LSM - Difference vs. Placebo",[6]; Lemborexant 5 mg,1.7
same,"Auditory Awakening Threshold, Mean (SD)",[6]; Lemborexant 5 mg,51.8
same,"Auditory Awakening Threshold, Median",[6]; Lemborexant 5 mg,50.0
same,"Auditory Awakening Threshold, LSM - Difference vs. Placebo",[6]; Lemborexant 10 mg,−0.9
same,"Auditory Awakening Threshold, Mean (SD)",[6]; Lemborexant 10 mg,51.7
same,"Auditory Awakening Threshold, Median",[6]; Lemborexant 10 mg,52.5
same,ability to be awakened by an external stimulus (auditory awakening threshold),[6]; Table 27,did not interfere with a subject's ability to be awakened by an external stimulus
